What was measured:
Format in all cases: in vivo
Lygus spinolai = test: Example 1A: field test on tea plants against Lygus spinolai; conditions: nymphs on shoots, Imidacloprid (10 WP) 0.005 % a.s., (I-4) (150 OD) 0.01 % a.s.; for Efficacy (% Abbott) 15 d: 15 d after treatment; for Efficacy (% Abbott) 29 d: 29 d after treatment
Experimental: Plots approximately 4 m^2 in size which are planted with tea plants c.v. “Yabukita” are treated, in 3 replications, against Lygus spinolai. Here, the active substance Example (I-4) (150 OD) is tested at the specified application rate against the commercial standard Imidacloprid (10 WP) at the specified application rate. The application is effected with an engine-driven knapsack sprayer. Here, the treatment is carried out with a water application rate of 10 000 l/ha.
The test is evaluated 15 and 29 days after the treatment by determining the destruction of the nymphs on the shoots.

Thrips palmi [1] = test: Example 4: aubergines against Thrips palmi; conditions: nymphs on leaves, (I-4) (240 SC + 0.2% rapeseed oil methyl ester) 0.0096 % a.s.; for Efficacy (% Abbott) 7 d after treatm. 3 / Efficacy (% Abbott) 14 d after treatm. 3 / Efficacy (% Abbott) 21 d after treatm. 3: Imidacloprid 0.01 % a.s.; for Efficacy (% Abbott) 4 d after treatm. 2: Imidacloprid (100 SL) 0.01 % a.s., three applications
Experimental: Plots 10 m^2 in size which are planted with aubergines cv. “Dumaguete Long Purple” are treated, in three replications, against Thrips palmi. The application is effected with a knapsack sprayer which is operated with pressurized air. Here, the active substance Example (I-4) (240 SC), in a tank mix together with 0.2% a.s. rapeseed oil methyl ester […] and the commercial standard Imidacloprid (100 SL), is tested at the specified application rates. The water application rate is 400 l/ha. Three applications are carried out at intervals of 8 and 7 days, respectively.
The test is evaluated in each case 4 days after treatment 2 and 7, 14 and 21 days after treatment 3 by scoring the destruction of the nymphs on the leaves.

Thrips palmi [2] = test: Example 7: aubergines against Thrips palmi; conditions: for Efficacy (% Abbott) 7 d: 7 d after the second application, 20 leaves, Imidacloprid (100 SL) 0.0151 % a.s., (I-4) (+ 0.2% rapeseed oil methyl ester) 0.0096 % a.s.; for Efficacy (% Abbott) 13 d: 13 d after the second application; for Efficacy (% Abbott) 13 d / Efficacy (% Abbott) 21 d: Imidacloprid 0.0151 % a.s., (I-4) 0.0096 % a.s.; for Efficacy (% Abbott) 21 d: 21 d after the second application
Experimental: Plots approximately 16.5 m^2 in size which are planted with aubergines are treated, in three replications, against Thrips palmi. Here, the active substance Example (I-4) and the commercial standard Imidacloprid (100 SL) is applied at the specified application rates, using a knapsack sprayer which is operated with compressed air. The water application rate is 750 l/ha. In the case of Example (I-4), 0.2% a.s. rapeseed oil methyl ester (500 EW) is added to the spray mixture. Three applications are carried out at intervals of 7 and 14 days, respectively.
The destruction rate in percent is determined on in each case 20 leaves. The following results are obtained 7, 13 and 21 days after the second application: […]

Thrips palmi [3] = test: Example 9: cucumbers against Thrips palmi; conditions: for Efficacy (% Abbott) 3 d: 3 d after treatment 1, nymphs on leaves, Imidacloprid (100 SL) 100, (I-4) (240 SC + 0.2% rapeseed oil methyl ester) 72 g a.s./ha, two applications, interval 8 days; for Efficacy (% Abbott) 8 d: 8 d after treatment 1, Imidacloprid 100, (I-4) 72 g a.s./ha; for Efficacy (% Abbott) 11 d: 11 d after treatment 1, Imidacloprid 100, (I-4) 72 g a.s./ha; for Efficacy (% Abbott) 15 d: 15 d after treatment 1, Imidacloprid 100, (I-4) 72 g a.s./ha
Experimental: Plots approximately 10 m^2 in size which are planted with cucumbers are treated, in three replications, against Thrips palmi. The application is carried out with a knapsack sprayer which is operated with pressurized air. Here, the active substance Example (I-4) (240 SC), in a tank mix with 0.2% a.s. rapeseed oil methyl ester (500 EW) and the commercial standard Imidacloprid (100 SL), is applied at the specified application rates. The application is carried out with a water application rate of […]. Two applications are carried out at an interval of 8 days.
The test is evaluated 3, 8, 11 and 15 days after treatment 1 by scoring the destruction rate of the animals (nymphs) on the leaves.

Thrips tabaci = test: Example 11: dwarf beans against Thrips tabaci
Experimental: Plots approx. 26 m^2 in size which are planted with dwarf beans are treated 16 days after emergence against Thrips tabaci, in four replications. The application is carried out with a knapsack sprayer which is operated with pressurized air. Here, the active substances Example (I-2) (240 SC) (I-4) (240 SC) and Example (I-9) (240 SC), in a tank mix with 0.1% a.s. rapeseed oil methyl ester (500 EW), are tested against the commercial standard Profenofos (720 EC) at the specified application rates. The water application rate is 1000 l/ha. Two applications are carried out at an interval of 10 days.
The test is evaluated 5 and 11 days after the first treatment by scoring the destruction rate of the nymphs on the leaves.

Dalbulus maidis = test: Example 13: dwarf beans against Dalbulus maidis; conditions: nymphs on leaves, all 96 g a.s./ha; for Efficacy (% Abbott) 7 d: 7 d after second treatment, 240 SC + 0.1% rapeseed oil methyl ester, Imidacloprid 200 SL; for Efficacy (% Abbott) 11 d: 11 d after second treatment
Experimental: Plots approx. 10 m^2 in size which are planted with dwarf beans cv. “Carioquinha” are treated, in three replications, against Dalbulus maidis. The application is carried out with a knapsack sprayer which is operated with pressurized air. Here, the active substances Example (I-4) (240 SC) and Example (I-9) (240 SC), in a tank mix with 0.1% a.s. rapeseed oil methyl ester (500 EW) and the commercial standard Imidacloprid (200 SL), are applied at the specified application rates. Two applications are carried out at an interval of 7 days, using a water application rate of 300 l/ha.
The test is evaluated 7 and 11 days after the second treatment by scoring the destruction rate of the animals (nymphs) on the leaves.

Liriomyza sp. = test: Example 18: beans against Liriomyza sp.
Experimental: Plots approx. 10 m^2 in size which are planted with beans cv. “Lago Azul” are treated, in three replications, against Liriomyza sp. Here, the active substance Example (I-4) (150 OD) and the commercial standards Cyromazine (WP 75) and Abamectin (EC 018) are applied at the specified application rates, using a knapsack sprayer which is operated with pressurized gas. The water application rate is 400 and 500 l/ha., respectively. Three applications are carried out at intervals of in each case 7 days.
The destruction rate in percent is determined on in each case 10 leaves. 2, 7, 12, 18, 20 and 25 days after the first treatment, the following results are obtained: […]

| SMILES | Efficacy (% Abbott) 15 d (Lygus spinolai) [% Abbott] | Efficacy (% Abbott) 29 d (Lygus spinolai) [% Abbott] | Efficacy (% Abbott) 7 d after treatm. 3 (Thrips palmi [1]) [% Abbott] | Efficacy (% Abbott) 14 d after treatm. 3 (Thrips palmi [1]) [% Abbott] | Efficacy (% Abbott) 21 d after treatm. 3 (Thrips palmi [1]) [% Abbott] | Efficacy (% Abbott) 4 d after treatm. 2 (Thrips palmi [1]) | Efficacy (% Abbott) 7 d (Thrips palmi [2]) [% Abbott] | Efficacy (% Abbott) 13 d (Thrips palmi [2]) [% Abbott] | Efficacy (% Abbott) 21 d (Thrips palmi [2]) [% Abbott] | Efficacy (% Abbott) 3 d (Thrips palmi [3]) [% Abbott] | Efficacy (% Abbott) 8 d (Thrips palmi [3]) [% Abbott] | Efficacy (% Abbott) 11 d (Thrips palmi [3]) [% Abbott] | Efficacy (% Abbott) 15 d (Thrips palmi [3]) [% Abbott] | Efficacy (% Abbott) 7 d (Dalbulus maidis) [% Abbott] | Efficacy (% Abbott) 11 d (Dalbulus maidis) [% Abbott] | also measured |
| --- | --- | --- | --- | --- | --- | --- | --- | --- | --- | --- | --- | --- | --- | --- | --- | --- |
| CCOC(=O)OC1=C(c2cc(C)ccc2C)C(=O)N[C@]12CC[C@@H](OC)CC2 [Example (I-4)] | 92.9 | 100 | 75.0 | 82.8 | 90.6 | 82.9 % Abbott | 84 | 88 | 78 | 64.5 | 91.0 | 80.4 | 70.1 | 73 | 69 | Efficacy (% Abbott) 5 d (Thrips tabaci; 5 d after first treatment, nymphs on leaves, Profenofos (720 EC) 1300, (I-9) 54, (I-2) 54, (I-4) 60 g a.s./ha, 240 SC + 0.1% rapeseed oil methyl ester): 60 % Abbott; Efficacy (% Abbott) 11 d (Thrips tabaci; 11 d after first treatment (second application at 10 days), Profenofos 1300, (I-9) 54, (I-2) 54, (I-4) 60 g a.s./ha): 90 % Abbott; Efficacy (% Abbott) 2 d (Liriomyza sp.; 2 d after first treatment, 10 leaves, Cyromazine (WP 75) 130, (I-4) (150 OD) 100, Abamectin (EC 018) 14.4 g a.s./ha, three applications, 7-day intervals): 40 % Abbott; Efficacy (% Abbott) 7 d (Liriomyza sp.; 7 d after first treatment, Cyromazine 130, (I-4) 100, Abamectin 14.4 g a.s./ha): 69 % Abbott; Efficacy (% Abbott) 12 d (Liriomyza sp.; 12 d after first treatment, Cyromazine 130, (I-4) 100, Abamectin 14.4 g a.s./ha): 30 % Abbott; Efficacy (% Abbott) 18 d (Liriomyza sp.; 18 d after first treatment, Cyromazine 130, (I-4) 100, Abamectin 14.4 g a.s./ha): 43 % Abbott; Efficacy (% Abbott) 20 d (Liriomyza sp.; 20 d after first treatment, Cyromazine 130, (I-4) 100, Abamectin 14.4 g a.s./ha): 57 % Abbott; Efficacy (% Abbott) 25 d (Liriomyza sp.; 25 d after first treatment, Cyromazine 130, (I-4) 100, Abamectin 14.4 g a.s./ha): 46 % Abbott |
| O=[N+]([O-])NC1=NCCN1Cc1ccc(Cl)nc1 [Imidacloprid] | 35.7 | 48.1 | 75.0 | 62.1 | 53.1 | 82.9. % Abbott | 72 | 68 | 24 | 85.3 | 85.5 | 91.7 | 77.1 | 82 | 74 | – |

Source: patent publication US20090298903A1, “USE OF TETRAMIC ACID DERIVATIVES FOR INSECT CONTROL” (priority 2006, published 2009)
